# Measured values published in patent US12083196B2, “Personal cleansing compositions with surfactants for increased foam performance” (ECOLAB USA INC., priority 2020, dated 2024).
# Experiment: SITA Foam Analyzer foam creation
# Format: physicochemical
# From the text: The reagents used below include: • Alpha-Step® PC-48 is a C10-16 sodium methyl 2-sulfolaurate and disodium 2-sulfolaurate available from Stepan; • Stepan-Mild® L3 is a predominantly C12 reaction product of lauryl alcohol and lactic acid available from Stepan; • SLES is sodium laureth sulfate; • Cola® Teric is an amphoteric sultaine available from Colonial Chemical, Inc.; • Glucopon® […] is an alkyl polyglycoside available from BASF Corporation; • Suga® Nate is a sodium laurylglucosides hydrooxypropylsulfonate available from Colonial Chemicals, Inc; • Lathanol® LAL is a sodium lauryl sulfoacetate available from Stepan. All experiments ran through the SITA Foam Analyzer were as follows: Equipment: • 1) Foaming Apparatus • 2) SITA Software Reagents: • 1) 250 mL of each solution • 2) DI water Preparation: Equipment is prepared by turning the water bath on with ample time to warm up before running tests. Adjust water bath to desired temperature. Quality Assurance: Run a positive and negative control for every experiment. Ensure equipment is clean and free from any residual surfactant chemistry beforehand. In each experiment set, proper differentiation between chemistries can be seen if at least one of the tested chemistries has an “S” curve that depicts a change in the initial foam building and the lathering step. Experimental Procedure: • 1) Prepare water bath • 2) Open the “SITA-foam” software on the computer. […] Foam Generation • i. Series Count (cycles): number of measurement replicates (3-triplicate) • ii. Fill With: Volume of sample liquid (250 mL for each test) • iii. Stir Count: Number of stirrings for each test (70). This is also the number of measurements for each cycle. • iv. Stir Time: Stirring duration of sample (10 sec) • v. Revolution: RPM o the stirrer (900 RMP) • b. Cleansing • i. Click the shower icon to activate the automatic cleansing and rinsing function. The vessel will be cleaned automatically after each cycle of measurements. • ii. Normal cleansing will rinse out the vessel many times. Small cleansing indicates a faster cleansing process. All above parameters can be saved • 5) After setting the parameters, click on “Start Measurement” which is the green “Play” button to proceed with the experiment • 6) After each cycle of experiments automatic cleansing and rinsing is done in preparation for the next cycle of measurements as long as the instrument is connected to tap water or a cleansing liquid reservoir • 7) Each click on the green “Start Measurement” icon opens a new window. The current sample measurement results are all in the same project folder. To rename sample measurement files, right click on the open sample window, and click “save” to rename your sample file • 8) If an error occurs at any point with your sample, the measurement reading can be stopped by clicking the red square “Stop icon” or by pressing the large red button on the machine • 9) Organize the graph generated with the icons in the fourth section of the tool bar: create new plot, add/remove data from plot, change axis properties, and view properties. Click on the “Create new plot” icon to view the plot after the experiment is done or if it is still running. Right click to rename the plot, insert or remove the plot and display the foam buildup, foam decay, or both Establishing initial foaming of the single surfactants is important to establish baselines for comparison for the combinations of various surfactants. To establish the foaming properties of single surfactants, a high amount of each surfactant was analyzed in the SITA Foam Analyzer as described above. The final concentration of each surfactant in solution was 1%. The surfactants tested were sodium lauryl sulfate (SLES), a betaine, Cola® Teric CBS, Glucopon® […], Lathanol® LAL, and Suga® Nate 160NC. […] The compositions were tested for foaming using the SITA Foam Analyzer as described above. […]
substance,measurement,setting,value
sodium laureth sulfate [SLES],ability to reach saturation of foam (in words),"SLES 0.2 wt. %, second surfactant 0.005 wt. %, FIG. 3",unable to reach saturation
same,foam height,"cycle 0, SLES 0.2 wt. %, second surfactant 0.005 wt. %",0 mL
same,foam height,"cycle 1, SLES 0.2 wt. %, second surfactant 0.005 wt. %",147.3 mL
same,foam height,"cycle 2, SLES 0.2 wt. %, second surfactant 0.005 wt. %",161 mL
same,foam height,"cycle 3, SLES 0.2 wt. %, second surfactant 0.005 wt. %",168.3 mL
same,foam height,"cycle 4, SLES 0.2 wt. %, second surfactant 0.005 wt. %",172.67 mL
same,foam height,"cycle 5, SLES 0.2 wt. %, second surfactant 0.005 wt. %",174 mL
same,foam height,"cycle 6, SLES 0.2 wt. %, second surfactant 0.005 wt. %",177 mL
same,foam height,"cycle 7, SLES 0.2 wt. %, second surfactant 0.005 wt. %",185.67 mL
same,foam height,"cycle 8, SLES 0.2 wt. %, second surfactant 0.005 wt. %",188.3 mL
same,foam height,"cycle 9, SLES 0.2 wt. %, second surfactant 0.005 wt. %",193.67 mL
same,foam height,"cycle 10, SLES 0.2 wt. %, second surfactant 0.005 wt. %",200 mL
same,foam height,"cycle 11, SLES 0.2 wt. %, second surfactant 0.005 wt. %",202.3 mL
same,foam height,"cycle 12, SLES 0.2 wt. %, second surfactant 0.005 wt. %",204.67 mL
same,foam height,"cycle 13, SLES 0.2 wt. %, second surfactant 0.005 wt. %",210 mL
same,foam height,"cycle 14, SLES 0.2 wt. %, second surfactant 0.005 wt. %",213 mL
same,foam height,"cycle 15, SLES 0.2 wt. %, second surfactant 0.005 wt. %",217 mL
same,foam height,"cycle 16, SLES 0.2 wt. %, second surfactant 0.005 wt. %",219.3 mL
same,foam height,"cycle 17, SLES 0.2 wt. %, second surfactant 0.005 wt. %",221.3 mL
same,foam height,"cycle 18, SLES 0.2 wt. %, second surfactant 0.005 wt. %",222.67 mL
same,foam height,"cycle 19, SLES 0.2 wt. %, second surfactant 0.005 wt. %",224.3 mL
same,foam height,"cycle 20, SLES 0.2 wt. %, second surfactant 0.005 wt. %",227.67 mL
same,foam height,"cycle 21, SLES 0.2 wt. %, second surfactant 0.005 wt. %",228.3 mL
same,foam height,"cycle 22, SLES 0.2 wt. %, second surfactant 0.005 wt. %",231 mL
same,foam height,"cycle 23, SLES 0.2 wt. %, second surfactant 0.005 wt. %",232.67 mL
same,foam height,"cycle 24, SLES 0.2 wt. %, second surfactant 0.005 wt. %",234.3 mL
same,foam height,"cycle 25, SLES 0.2 wt. %, second surfactant 0.005 wt. %",235.3 mL
same,foam height,"cycle 26, SLES 0.2 wt. %, second surfactant 0.005 wt. %",237 mL
same,foam height,"cycle 27, SLES 0.2 wt. %, second surfactant 0.005 wt. %",237.67 mL
same,foam height,"cycle 28, SLES 0.2 wt. %, second surfactant 0.005 wt. %",239 mL
same,foam height,"cycle 29, SLES 0.2 wt. %, second surfactant 0.005 wt. %",239.67 mL
same,foam height,"cycle 30, SLES 0.2 wt. %, second surfactant 0.005 wt. %",240 mL
same,foam height,"cycle 31, SLES 0.2 wt. %, second surfactant 0.005 wt. %",240.67 mL
same,foam height,"cycle 32, SLES 0.2 wt. %, second surfactant 0.005 wt. %",241.3 mL
same,foam height,"cycle 33, SLES 0.2 wt. %, second surfactant 0.005 wt. %",242.3 mL
same,foam height,"cycle 34, SLES 0.2 wt. %, second surfactant 0.005 wt. %",243 mL
same,foam height,"cycle 35, SLES 0.2 wt. %, second surfactant 0.005 wt. %",243 mL
same,foam height,"cycle 36, SLES 0.2 wt. %, second surfactant 0.005 wt. %",243.67 mL
same,foam height,"cycle 37, SLES 0.2 wt. %, second surfactant 0.005 wt. %",244 mL
same,foam height,"cycle 38, SLES 0.2 wt. %, second surfactant 0.005 wt. %",245.3 mL
same,foam height,"cycle 39, SLES 0.2 wt. %, second surfactant 0.005 wt. %",245 mL
same,foam height,"cycle 40, SLES 0.2 wt. %, second surfactant 0.005 wt. %",245 mL
same,foam height,"cycle 41, SLES 0.2 wt. %, second surfactant 0.005 wt. %",245.67 mL
same,foam height,"cycle 42, SLES 0.2 wt. %, second surfactant 0.005 wt. %",246 mL
same,foam height,"cycle 43, SLES 0.2 wt. %, second surfactant 0.005 wt. %",246 mL
same,foam height,"cycle 44, SLES 0.2 wt. %, second surfactant 0.005 wt. %",246.67 mL
same,foam height,"cycle 45, SLES 0.2 wt. %, second surfactant 0.005 wt. %",246.67 mL
same,foam height,"cycle 46, SLES 0.2 wt. %, second surfactant 0.005 wt. %",246.67 mL
same,foam height,"cycle 47, SLES 0.2 wt. %, second surfactant 0.005 wt. %",247 mL
same,foam height,"cycle 48, SLES 0.2 wt. %, second surfactant 0.005 wt. %",247.67 mL
same,foam height,"cycle 49, SLES 0.2 wt. %, second surfactant 0.005 wt. %",247.67 mL
same,foam height,"cycle 50, SLES 0.2 wt. %, second surfactant 0.005 wt. %",248 mL
same,foam height,"cycle 51, SLES 0.2 wt. %, second surfactant 0.005 wt. %",248.67 mL
same,foam height,"cycle 52, SLES 0.2 wt. %, second surfactant 0.005 wt. %",248.67 mL
same,foam height,"cycle 53, SLES 0.2 wt. %, second surfactant 0.005 wt. %",248.67 mL
same,foam height,"cycle 54, SLES 0.2 wt. %, second surfactant 0.005 wt. %",250 mL
same,foam height,"cycle 55, SLES 0.2 wt. %, second surfactant 0.005 wt. %",250.3 mL
same,foam height,"cycle 56, SLES 0.2 wt. %, second surfactant 0.005 wt. %",251.3 mL
same,foam height,"cycle 57, SLES 0.2 wt. %, second surfactant 0.005 wt. %",250.3 mL
same,foam height,"cycle 58, SLES 0.2 wt. %, second surfactant 0.005 wt. %",250 mL
same,foam height,"cycle 59, SLES 0.2 wt. %, second surfactant 0.005 wt. %",251 mL
same,foam height,"cycle 60, SLES 0.2 wt. %, second surfactant 0.005 wt. %",251.3 mL
same,foam height,"cycle 61, SLES 0.2 wt. %, second surfactant 0.005 wt. %",251.67 mL
same,foam height,"cycle 62, SLES 0.2 wt. %, second surfactant 0.005 wt. %",252.67 mL
same,foam height,"cycle 63, SLES 0.2 wt. %, second surfactant 0.005 wt. %",252 mL
same,foam height,"cycle 64, SLES 0.2 wt. %, second surfactant 0.005 wt. %",253 mL
same,foam height,"cycle 65, SLES 0.2 wt. %, second surfactant 0.005 wt. %",253.67 mL
same,foam height,"cycle 66, SLES 0.2 wt. %, second surfactant 0.005 wt. %",253.67 mL
same,foam height,"cycle 67, SLES 0.2 wt. %, second surfactant 0.005 wt. %",253.67 mL
same,foam height,"cycle 68, SLES 0.2 wt. %, second surfactant 0.005 wt. %",253 mL
same,foam height,"cycle 69, SLES 0.2 wt. %, second surfactant 0.005 wt. %",253 mL
same,foam height,"cycle 70, SLES 0.2 wt. %, second surfactant 0.005 wt. %",254 mL
same,onset of foam saturation (in words),"single surfactant, 1%, FIG. 1",taking the longest to reach saturation
